How the values were obtained:
Assay type in all cases: in vivo
ducksalad [1] = experiment: Test Example 2: herbicidal effects during the vegetation period under submerged conditions; conditions: treatment during the vegetation period under submerged conditions; dose 2.52 g/a
Summary of the method: (§1)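 Barnyardgrass, bulrush and ducksalad were co-sown in alluvial soil flooded to 4 cm and grown in a greenhouse at 25 to 30° C. At the 1- or 2-leaf stage, water-diluted emulsifiable concentrates went onto the water surface at set doses (g/a). Herbicidal effect was scored three weeks later on a graded scale.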

barnyardgrass [2] = experiment: as above; conditions: treatment during the vegetation period under submerged conditions; dose 2.52 g/a
Summary of the method: as §1

bulrush [3] = experiment: as above; conditions: treatment during the vegetation period under submerged conditions; dose 2.52 g/a
Summary of the method: as §1

water foxtail [4] = experiment: Test Example 3: herbicidal effects in soil treatment; conditions: dose 3.2 g/a
Summary of the method: (§2)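 Seeds were sown in sterilized diluvial soil and covered with about 1.5 cm of soil. Compounds, formulated as emulsifiable concentrates and diluted with water, were sprayed evenly over the soil surface at set doses in g/a. Herbicidal effect was scored on a rating scale three weeks later.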

giant foxtail [5] = experiment: as above; conditions: dose 3.2 g/a
Summary of the method: as §2

beadstraw [6] = experiment: as above; conditions: dose 3.2 g/a
Summary of the method: as §2

common lambsquater [7] = experiment: as above; conditions: dose 3.2 g/a
Summary of the method: as §2

Italian ryegrass [8] = experiment: as above; conditions: dose 3.2 g/a
Summary of the method: as §2

velvetleaf [9] = experiment: as above; conditions: dose 3.2 g/a
Summary of the method: as §2

wild oat [10] = experiment: as above; conditions: dose 3.2 g/a
Summary of the method: as §2

redroot pigweed [11] = experiment: as above; conditions: dose 3.2 g/a
Summary of the method: as §2

common ragweed [12] = experiment: as above; conditions: dose 3.2 g/a
Summary of the method: as §2

common chickweed [13] = experiment: as above; conditions: dose 3.2 g/a
Summary of the method: as §2

posumbu knotweed [14] = experiment: as above; conditions: dose 3.2 g/a
Summary of the method: as §2

barnyardgrass [15] = experiment: as above; conditions: dose 3.2 g/a
Summary of the method: as §2

large crabgrass [16] = experiment: as above; conditions: dose 3.2 g/a
Summary of the method: as §2

water foxtail [17] = experiment: Test Example 4: herbicidal effect in foliage treatment; conditions: dose 3.2 g/a, three weeks after application
Summary of the method: (§3)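 Foliar spray, post-emergence: 14-day-old greenhouse plants (25–30° C, diluvial soil) treated with water-diluted EC at set g/a doses; visual herbicidal score at 3 wk post-application.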

giant foxtail [18] = experiment: as above; conditions: dose 3.2 g/a, three weeks after application
Summary of the method: as §3

beadstraw [19] = experiment: as above; conditions: dose 3.2 g/a, three weeks after application
Summary of the method: as §3

common lambsquater [20] = experiment: as above; conditions: dose 3.2 g/a, three weeks after application
Summary of the method: as §3

Italian ryegrass [21] = experiment: as above; conditions: dose 3.2 g/a, three weeks after application
Summary of the method: as §3

velvetleaf [22] = experiment: as above; conditions: dose 3.2 g/a, three weeks after application
Summary of the method: as §3

wild oat [23] = experiment: as above; conditions: dose 3.2 g/a, three weeks after application
Summary of the method: as §3

redroot pigweed [24] = experiment: as above; conditions: dose 3.2 g/a, three weeks after application
Summary of the method: as §3

common ragweed [25] = experiment: as above; conditions: dose 3.2 g/a, three weeks after application
Summary of the method: as §3

common chickweed [26] = experiment: as above; conditions: dose 3.2 g/a, three weeks after application
Summary of the method: as §3

posumbu knotweed [27] = experiment: as above; conditions: dose 3.2 g/a, three weeks after application
Summary of the method: as §3

barnyardgrass [28] = experiment: as above; conditions: dose 3.2 g/a, three weeks after application
Summary of the method: as §3

large crabgrass [29] = experiment: as above; conditions: dose 3.2 g/a, three weeks after application
Summary of the method: as §3

transplanted rice = experiment: Test Example 1: preemergence treatment under submerged conditions, effect on crop; conditions: dose 2.52 g/a
Summary of the method: (§4)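 Scoring 0 (<5% mortality) to 5 (≥90%) was done three weeks after preemergence application to the water surface of submerged (4 cm) alluvial soil, doses given as g per are. Weeds were seeded and 2.5-leaf rice transplanted on the treatment day; greenhouse at 25–30 °C.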

ducksalad [30] = experiment: Test Example 1: herbicidal effects in preemergence treatment under submerged conditions; conditions: dose 2.52 g/a
Summary of the method: as §4

barnyardgrass [31] = experiment: as above; conditions: dose 2.52 g/a
Summary of the method: as §4

bulrush [32] = experiment: as above; conditions: dose 2.52 g/a
Summary of the method: as §4

Which “C: ducksalad, herbicidal effect (evaluation scale 0-5)” value (“C: ducksalad, herbicidal effect” below) (ducksalad [1]) does the source give for `CC(C)COC(=O)N(c1ccccc1CN1CC(C)OCC1=O)S(=O)(=O)C(F)(F)F` (stereo not drawn) [Compound I-9] here?
The value was 5 (mortality of 90% or above (nearly complete death)).

And the “A: barnyardgrass, herbicidal effect (evaluation scale 0-5)” value (barnyardgrass [2])?
The value was 5 (mortality of 90% or above (nearly complete death)).

And the “B: bulrush, herbicidal effect (evaluation scale 0-5)” value (“B: bulrush, herbicidal effect” for short) (bulrush [3])?
The value was 5 (mortality of 90% or above (nearly complete death)).

What about the “G: water foxtail, herbicidal effect (evaluation scale 0-5)” value (water foxtail [4]) of the same molecule?
The value was 5 (mortality of 90% or above (nearly complete death)).

And the “E: giant foxtail, herbicidal effect (evaluation scale 0-5)” value (giant foxtail [5])?
Its value is 4 (mortality of at least 70% and less than 90%).

And the “O: beadstraw, herbicidal effect (evaluation scale 0-5)” value (beadstraw [6])?
The value was 4 (mortality of at least 70% and less than 90%).

And the “L: common lambsquater, herbicidal effect (evaluation scale 0-5)” value (common lambsquater [7])?
Its value is 0 (mortality of less than 5% (almost ineffective)).

And the “H: Italian ryegrass, herbicidal effect (evaluation scale 0-5)” value (Italian ryegrass [8])?
Its value is 3 (mortality of at least 40% and less than 70%).

What about the “I: velvetleaf, herbicidal effect (evaluation scale 0-5)” value (velvetleaf [9]) of the same molecule?
The value was 5 (mortality of 90% or above (nearly complete death)).

What about the “F: wild oat, herbicidal effect (evaluation scale 0-5)” value (wild oat [10]) of the same molecule?
Its value is 3 (mortality of at least 40% and less than 70%).

What about the “K: redroot pigweed, herbicidal effect (evaluation scale 0-5)” value (redroot pigweed [11]) of the same molecule?
The value was 4 (mortality of at least 70% and less than 90%).

And the “J: common ragweed, herbicidal effect (evaluation scale 0-5)” value (common ragweed [12])?
The value was 5 (mortality of 90% or above (nearly complete death)).

What about the “N: common chickweed, herbicidal effect (evaluation scale 0-5)” value (common chickweed [13]) of the same molecule?
The value was 5 (mortality of 90% or above (nearly complete death)).

And the “M: posumbu knotweed, herbicidal effect (evaluation scale 0-5)” value (posumbu knotweed [14])?
Its value is 0 (mortality of less than 5% (almost ineffective)).

What about the “A: barnyardgrass, herbicidal effect (evaluation scale 0-5)” value (barnyardgrass [15]) of the same molecule?
Its value is 5 (mortality of 90% or above (nearly complete death)).

What about the “D: large crabgrass, herbicidal effect (evaluation scale 0-5)” value (large crabgrass [16]) of the same molecule?
The value was 5 (mortality of 90% or above (nearly complete death)).

And the “G: water foxtail, herbicidal effect” value (water foxtail [17])?
Its value is 5 (mortality of 90% or above (nearly complete death)).

What about the “E: giant foxtail, herbicidal effect” value (giant foxtail [18]) of the same molecule?
Its value is 3 (mortality of at least 40% and less than 70%).

What about the “O: beadstraw, herbicidal effect” value (beadstraw [19]) of the same molecule?
The value was 4 (mortality of at least 70% and less than 90%).

What about the “L: common lambsquater, herbicidal effect” value (common lambsquater [20]) of the same molecule?
The value was 0 (mortality of less than 5% (almost ineffective)).

And the “H: Italian ryegrass, herbicidal effect” value (Italian ryegrass [21])?
Its value is 3 (mortality of at least 40% and less than 70%).

What about the “I: velvetleaf, herbicidal effect” value (velvetleaf [22]) of the same molecule?
The value was 5 (mortality of 90% or above (nearly complete death)).

And the “F: wild oat, herbicidal effect” value (wild oat [23])?
Its value is 0 (mortality of less than 5% (almost ineffective)).

What about the “K: redroot pigweed, herbicidal effect” value (redroot pigweed [24]) of the same molecule?
The value was 2 (mortality of at least 20% and less than 40%).

And the “J: common ragweed, herbicidal effect” value (common ragweed [25])?
The value was 4 (mortality of at least 70% and less than 90%).

And the “N: common chickweed, herbicidal effect” value (common chickweed [26])?
Its value is 3 (mortality of at least 40% and less than 70%).

What about the “M: posumbu knotweed, herbicidal effect” value (posumbu knotweed [27]) of the same molecule?
The value was 0 (mortality of less than 5% (almost ineffective)).

And the “A: barnyardgrass, herbicidal effect” value (barnyardgrass [28])?
The value was 5 (mortality of 90% or above (nearly complete death)).

What about the “D: large crabgrass, herbicidal effect” value (large crabgrass [29]) of the same molecule?
The value was 5 (mortality of 90% or above (nearly complete death)).

What about the “a: transplanted rice, effect on crop (evaluation scale 0-5)” value (transplanted rice) of the same molecule?
The value was 0 (mortality of less than 5% (almost ineffective)).

And the “C: ducksalad, herbicidal effect” value (ducksalad [30])?
Its value is 5 (mortality of 90% or above (nearly complete death)).

And the “A: barnyardgrass, herbicidal effect (evaluation scale 0-5)” value (barnyardgrass [31])?
Its value is 5 (mortality of 90% or above (nearly complete death)).

What about the “B: bulrush, herbicidal effect” value (bulrush [32]) of the same molecule?
The value was 5 (mortality of 90% or above (nearly complete death)).

`CN(c1ccccc1CN1COC(C)(C)CC1=O)S(=O)(=O)C(F)(F)F` [II-18] was tested. Which “C: ducksalad, herbicidal effect” value (ducksalad [1]) did it give?
The value was 2 (mortality of at least 20% and less than 40%).

And the “A: barnyardgrass, herbicidal effect (evaluation scale 0-5)” value (barnyardgrass [2])?
Its value is 5 (mortality of 90% or above (nearly complete death)).

And the “B: bulrush, herbicidal effect” value (bulrush [3])?
The value was 5 (mortality of 90% or above (nearly complete death)).

And the “G: water foxtail, herbicidal effect (evaluation scale 0-5)” value (water foxtail [4])?
The value was 0 (mortality of less than 5% (almost ineffective)).

And the “E: giant foxtail, herbicidal effect (evaluation scale 0-5)” value (giant foxtail [5])?
Its value is 0 (mortality of less than 5% (almost ineffective)).

And the “O: beadstraw, herbicidal effect (evaluation scale 0-5)” value (beadstraw [6])?
Its value is 4 (mortality of at least 70% and less than 90%).

What about the “L: common lambsquater, herbicidal effect (evaluation scale 0-5)” value (common lambsquater [7]) of the same molecule?
Its value is 0 (mortality of less than 5% (almost ineffective)).

What about the “H: Italian ryegrass, herbicidal effect (evaluation scale 0-5)” value (Italian ryegrass [8]) of the same molecule?
Its value is 0 (mortality of less than 5% (almost ineffective)).

What about the “I: velvetleaf, herbicidal effect (evaluation scale 0-5)” value (velvetleaf [9]) of the same molecule?
The value was 0 (mortality of less than 5% (almost ineffective)).

What about the “F: wild oat, herbicidal effect (evaluation scale 0-5)” value (wild oat [10]) of the same molecule?
Its value is 0 (mortality of less than 5% (almost ineffective)).

And the “K: redroot pigweed, herbicidal effect (evaluation scale 0-5)” value (redroot pigweed [11])?
Its value is 0 (mortality of less than 5% (almost ineffective)).

What about the “J: common ragweed, herbicidal effect (evaluation scale 0-5)” value (common ragweed [12]) of the same molecule?
The value was 4 (mortality of at least 70% and less than 90%).

And the “N: common chickweed, herbicidal effect (evaluation scale 0-5)” value (common chickweed [13])?
The value was 4 (mortality of at least 70% and less than 90%).

And the “M: posumbu knotweed, herbicidal effect (evaluation scale 0-5)” value (posumbu knotweed [14])?
Its value is 0 (mortality of less than 5% (almost ineffective)).

What about the “A: barnyardgrass, herbicidal effect (evaluation scale 0-5)” value (barnyardgrass [15]) of the same molecule?
Its value is 4 (mortality of at least 70% and less than 90%).

What about the “D: large crabgrass, herbicidal effect (evaluation scale 0-5)” value (large crabgrass [16]) of the same molecule?
The value was 0 (mortality of less than 5% (almost ineffective)).

What about the “G: water foxtail, herbicidal effect” value (water foxtail [17]) of the same molecule?
The value was 0 (mortality of less than 5% (almost ineffective)).

What about the “E: giant foxtail, herbicidal effect” value (giant foxtail [18]) of the same molecule?
Its value is 0 (mortality of less than 5% (almost ineffective)).

And the “O: beadstraw, herbicidal effect” value (beadstraw [19])?
The value was 5 (mortality of 90% or above (nearly complete death)).

What about the “L: common lambsquater, herbicidal effect” value (common lambsquater [20]) of the same molecule?
Its value is 0 (mortality of less than 5% (almost ineffective)).

And the “H: Italian ryegrass, herbicidal effect” value (Italian ryegrass [21])?
The value was 0 (mortality of less than 5% (almost ineffective)).

And the “I: velvetleaf, herbicidal effect” value (velvetleaf [22])?
The value was 0 (mortality of less than 5% (almost ineffective)).

And the “F: wild oat, herbicidal effect” value (wild oat [23])?
Its value is 0 (mortality of less than 5% (almost ineffective)).

And the “K: redroot pigweed, herbicidal effect” value (redroot pigweed [24])?
The value was 0 (mortality of less than 5% (almost ineffective)).

What about the “J: common ragweed, herbicidal effect” value (common ragweed [25]) of the same molecule?
Its value is 3 (mortality of at least 40% and less than 70%).

What about the “N: common chickweed, herbicidal effect” value (common chickweed [26]) of the same molecule?
Its value is 4 (mortality of at least 70% and less than 90%).

And the “M: posumbu knotweed, herbicidal effect” value (posumbu knotweed [27])?
Its value is 3 (mortality of at least 40% and less than 70%).

What about the “A: barnyardgrass, herbicidal effect” value (barnyardgrass [28]) of the same molecule?
Its value is 4 (mortality of at least 70% and less than 90%).

And the “D: large crabgrass, herbicidal effect” value (large crabgrass [29])?
The value was 0 (mortality of less than 5% (almost ineffective)).

What about the “a: transplanted rice, effect on crop (evaluation scale 0-5)” value (transplanted rice) of the same molecule?
The value was 0 (mortality of less than 5% (almost ineffective)).

And the “C: ducksalad, herbicidal effect” value (ducksalad [30])?
The value was 0 (mortality of less than 5% (almost ineffective)).

What about the “A: barnyardgrass, herbicidal effect (evaluation scale 0-5)” value (barnyardgrass [31]) of the same molecule?
Its value is 2 (mortality of at least 20% and less than 40%).

And the “B: bulrush, herbicidal effect” value (bulrush [32])?
The value was 5 (mortality of 90% or above (nearly complete death)).
